Data: patent US20240181093A1 (ADENOBIO N.V, priority 2012, published 2024)
Where “and” joins values, the source holds several entries; their conditions need not be identical. Equal entries are not always repeated. Marks after values point to notes of the source that are not given here.

Assays:
coronary hyperaemia = conditions: cited from earlier work
[1] = test system: Left anterior descending coronary artery (LAD); assay: Transthoracic doppler echocardiography (TTDE) flow velocity measurements at rest and under pharmacologic stress; format: in vivo, human; conditions: for Average Optimal Effect Duration: combined with adenosine bolus
Description: The value of absolute coronary blood flow (CBF) may be substituted by the value of CBF velocity (peak and mean velocities). […] Given that blood flow=velocity flow×cross section, if cross section is constant, velocity variations reflect blood flow variations.
TTDE is a non invasive approach conducted under the same conditions as for thallium or technetium scintigraphy (intravenous injection) and another way to study Coronary Flow Reserve (CFR).

patients = conditions: cited from earlier work
[2] = Table 1: same coronary patient, 5 studies, second data of cell, adenosine 140 μg/kg/min 2 minute infusion, combination 30 second IV bolus
[3] = bolus independently of the patient's weight

Which duration of action (coronary hyperaemia; in vivo) does the source give for `Nc1nc(N/N=C/C2CCCCC2)nc2c1ncn2[C@@H]1O[C@H](CO)[C@@H](O)[C@H]1O` [binodenoson] here?
The duration of action was 10 ± 6 min.

With `Nc1ncnc2c1ncn2[C@@H]1O[C@H](CO)[C@@H](O)[C@H]1O` [Adenosine, adenosine] as the compound, how does the “DOE = Duration of optimal effect” value ([1]; Table 1: same coronary patient) read?
Its value is 60 to 90 s.

What about the “RBL = Return to base line” value ([1]; Table 1: same coronary patient) of the same compound?
The value was 40 to 50 s.

What about the “TTP = Time to peak” value ([1]; Table 1: same coronary patient) of the same compound?
The value was 40 to 50 s.

What about the “MV = Mean Velocity, under stress conditions” value [1, 2] of the same compound?
Its value is 78 cm/s and 80 cm/s and 82 cm/s and 75 cm/s and 74 cm/s.

And the “PV = Peak Velocity, under stress conditions” value [1, 2]?
Its value is 108 cm/sec and 96 cm/sec and 98 cm/sec and 105 cm/sec.

What about the “CR (based on MV)” value ([1]; Table 2: three different coronary patients, one line per patient, listed as St. Adenosine) of the same compound?
Its value is 2.12 and 2.36 and 2.88.

And the “MV (mean velocity), under stress conditions” value ([1]; Table 2: three different coronary patients, one line per patient, second data of cell, St. adenosine 140 μg/kg/min infusion about 2 minutes, combination IV 30 second bolus)?
The value was 50 cm/s and 33 cm/s and 75 cm/s.

And the “adverse reaction: flushing” value (patients; adenosine infusion, most frequently reported)?
The value was 44%.

What about the “Other side effects, incidence” value (patients; adenosine infusion) of the same compound?
Its value is “below 10%”.

And the “adverse reaction: chest pain or chest discomfort” value (patients; adenosine infusion)?
The value was 40%.

And the “adverse reaction: dyspnoea” value (patients; adenosine infusion)?
Its value is 28%.

What about the “adverse reaction: gastrointestinal discomfort” value (patients; adenosine infusion) of the same compound?
Its value is 13%.

What about the “adverse reaction: headache” value (patients; adenosine infusion) of the same compound?
Its value is 18%.

What about the “adverse reaction: throat or neck or jaw discomfort” value (patients; adenosine infusion) of the same compound?
Its value is 15%.

And the “time to near-maximal vasodilatation, on average” value (coronary hyperaemia; infusion)?
Its value is 60 s.

Which “Average Optimal Effect Duration” value ([1]; Dipyridamole dose 9 mg, regardless of the dose of adenosine) does the source give for `OCCN(CCO)c1nc(N2CCCCC2)c2nc(N(CCO)CCO)nc(N3CCCCC3)c2n1` [Dipyridamole, dipyridamole] here?
Its value is 30 to 40 s.

What about the “Average Optimal Effect Duration” value ([1]; Dipyridamole dose 10 mg, regardless of the dose of adenosine) of the same compound?
Its value is 40 to 50 s.

What about the “Average Optimal Effect Duration” value ([1]; Dipyridamole dose 12 mg, regardless of the dose of adenosine) of the same compound?
The value was 40 to 90 s.

What about the “Average Optimal Effect Duration” value ([1]; Dipyridamole dose 14 mg, prolongs side effects when they occur) of the same compound?
The value was 60-100** sec.

And the “coronary effect and side effect” value ([1]; alone as a 12 mg or 14 mg bolus)?
Its value is “no coronary effect and no side effect”.

And the “coronary effect or symptom” value ([1]; injected as a bolus alone at the dose of 12 mg (n=5 patients))?
The value was “does not induce any significant coronary effect or symptom”.

What about the “duration of peak of activity” value (coronary hyperaemia; in vivo) of the same compound?
Its value is 20 to 30 min.

With `CNC(=O)c1cnn(-c2nc(N)c3ncn([C@@H]4O[C@H](CO)[C@@H](O)[C@H]4O)c3n2)c1` [regadenoson] as the compound, how does the “side effects as compared to the reference drug Adenoscan (adenosine)” value (patients; in vivo) read?
The value was “increase in dyspnea, headache and gastrointestinal disorders”.

What about the “efficacy and tolerance at 500 μg” value (coronary hyperaemia; [3]) of the same compound?
Its value is “same efficacy as 400 μg but tolerance is worst”.

And the “efficacy threshold dose in many but not all patients” value (coronary hyperaemia; [3])?
The value was 300 µg.

And the “dose efficient in all patients” value (coronary hyperaemia; bolus independently of the patient's weight, marketed dose)?
Its value is 400 µg.

What about the “time after which coronary hyperaemia is induced” value (coronary hyperaemia; in vivo) of the same compound?
The value was 30 s.
